From publication PMC6695355, “Alanine Scanning Studies of the Antimicrobial Peptide Aurein 1.2” (Probiotics and Antimicrobial Proteins, 2018)
≈ marks a conversion by molar mass, not a printed value. Where a SMILES comes first, the peptide text is derived from it.

What was measured:
[1] = test system: S. aureus ATCC 25923 biofilm formation; type: cell-based, Staphylococcus aureus; conditions: ATCC 25923, 24 h
Experimental: (§1) The minimum inhibitory concentrations (MICs) of test compounds were assessed by broth microdilution method on 96-well plates, according to the guidelines of Clinical and Laboratory Standards Institute (CLSI). For this purpose, reference strains of bacteria: S. aureus ATCC 25923, E. faecalis PCM 2673, E. coli ATCC 25922, and P. aeruginosa ATCC 9027; and fungus: C. albicans ATCC 10231 were used (The Polish Collection of Microorganism, Polish Academy of Sciences, Wrocław, Poland). Bacteria at initial inoculums of 0.5 × 10^5 CFU/mL in Mueller Hinton Broth (MHB), and fungi at initial inoculums of 2 × 10^3 CFU/mL in RPMI-1640, were exposed to the compounds over the concentration range of 1–512 μg/mL. The polystyrene plates were incubated at 37 °C for 18 h with bacteria and for 24 h with C. albicans. The MIC was taken as the lowest concentration at which a noticeable growth of microorganisms was inhibited. Minimum biofilm eradication concentrations (MBECs) were determined using a previously described protocol. For this purpose, 96-well polystyrene flat-bottom plates and a resazurin (7-hydroxy-3H-phenoxazin-3-one 10-oxide) were used. In this assay, a specific feature of resazurin is utilized, which upon the contact with living cells is metabolized and reduced from the basic blue form to pink resorufin. Briefly, 24-h cultures of microorganisms were diluted 1,000-fold and 100 μL of that suspension was added into the test plates. After 24 h of incubation at 37 °C, the wells of the plates were rinsed three times with phosphate buffer saline (PBS) to remove non-adherent cells. Subsequently, 100 μL of test compounds in concentration range (diluted in appropriate media) were added to each well. After 24 h of incubation at 37 °C, 20 μL of the resazurin (4 mg/mL) was added. The MBEC was read after 1 h. Additionally, anti-adhesive properties of the compounds were also analyzed. The assay was conducted on 96-well polystyrene flat-bottom plates. The preparation of inoculums was followed by a 500-fold dilution of 24-h cultures of microorganisms. Briefly, to evaluate the effect of the peptides in preventing biofilm formation, 50 μL of compounds in concentration range, diluted in appropriate medium, were prepared. Subsequently, the 50 μL of the bacterial/fungal inoculums were added to reach the same microbial density as that in MBEC assay. After 24 h of incubation at 37 °C, the wells were rinsed three times with PBS and the fresh media with resazurin (0.6 mg/mL) were added. Then, after 1 h of incubation, the minimum biofilm inhibitory concentrations (MBIC) were read. MBECs as well as MBICs were determined as the lowest concentration at which the reduction of resazurin was lower or equal (10% ± 0.5%) as compared to positive (100%) and negative (0%) controls. All experiments were performed in triplicate.

[2] = test system: S. aureus ATCC 25923 biofilm; type: cell-based, Staphylococcus aureus; conditions: ATCC 25923, 24 h
Experimental: as §1

S. aureus ATCC 25923 = type: cell-based, Staphylococcus aureus; conditions: ATCC 25923, 18 h
Experimental: as §1

[3] = test system: E. faecalis PCM 2673 biofilm formation; type: cell-based, Enterococcus faecalis; conditions: 24 h
Experimental: as §1

[4] = test system: E. faecalis PCM 2673 biofilm; type: cell-based, Enterococcus faecalis; conditions: 24 h
Experimental: as §1

E. faecalis PCM 2673 = type: cell-based, Enterococcus faecalis; conditions: PCM 2673, 18 h
Experimental: as §1

[5] = test system: E. coli ATCC 25922 biofilm formation; type: cell-based, Escherichia coli; conditions: ATCC 25922, 24 h
Experimental: as §1

[6] = test system: E. coli ATCC 25922 biofilm; type: cell-based, Escherichia coli; conditions: ATCC 25922, 24 h
Experimental: as §1

E. coli ATCC 25922 = type: cell-based, Escherichia coli; conditions: ATCC 25922, 18 h
Experimental: as §1

[7] = test system: P. aeruginosa ATCC 9027 biofilm formation; type: cell-based, Pseudomonas aeruginosa; conditions: ATCC 9027, 24 h
Experimental: as §1

[8] = test system: P. aeruginosa ATCC 9027 biofilm; type: cell-based, Pseudomonas aeruginosa; conditions: ATCC 9027, 24 h
Experimental: as §1

P. aeruginosa ATCC 9027 = type: cell-based, Pseudomonas aeruginosa; conditions: ATCC 9027, 18 h
Experimental: as §1

[9] = test system: C. albicans ATCC 10231 biofilm formation; type: cell-based, Candida albicans; conditions: ATCC 10231, 24 h
Experimental: as §1

[10] = test system: C. albicans ATCC 10231 biofilm; type: cell-based, Candida albicans; conditions: ATCC 10231, 24 h
Experimental: as §1

C. albicans ATCC 10231 = type: cell-based, Candida albicans; conditions: ATCC 10231, 24 h
Experimental: as §1

[11] = test system: human red blood cells (RBCs); experiment: Hemolysis assay; type: cell-based; conditions: red cells of human, 1 h
Experimental: The hemolytic activity of the peptides was determined using fresh human red blood cells (RBCs) collected from a healthy human donor according to the procedure described in the literature. Fresh RBCs with EDTA as anticoagulant were rinsed three times with a PBS by centrifugation at 800×g for 10 min and resuspension in PBS. Serial dilution of the peptides in PBS (1–256 μg/mL) on 96-well polystyrene plates was prepared and the stock solution of RBCs was added up to a final volume of 100 μL with a 4% concentration of erythrocytes (v/v). The control wells for 0 and 100% hemolysis contained of RBCs suspended in PBS and 1% of Triton-X 100, respectively. Subsequently, the plates were incubated for 1 h at 37 °C and then centrifuged at 800×g for 10 min at 4 °C (Sorvall ST 16R Centrifuge, Thermo Scientific). After centrifugation, the supernatant was carefully […] to new microtiter plates and the release of hemoglobin was measured at 540 nm (Multiskan™ GO Microplate Spectrophotometer, Thermo Scientific). All experiments were conducted in triplicate.

in vitro = in vitro ADME; conditions: bovine, serum
Experimental: To assess serum stability, the peptides (0.5 mg) were dissolved in 4 mL of 25% (v/v) fetal bovine serum (FBS) in PBS and incubated at 37 °C. The aliquots of 100 μL of the test samples were transferred to 96-well polystyrene plates in triplicate for each time point. Samples were quenched at zero time (t0) and after 6 h of incubation at 37 °C by addition of 100 μL of ice-cold acetonitrile and stored at 4 °C for 10 min. Afterwards, the samples were centrifuged at 13,000×g for 20 min at 4 °C and diluted 1:1 with HPLC-grade water. All samples were analyzed using the Waters Alliance e2695 system with Waters Acquity QDa Detector (software–Empower®3). Analyses were conducted on an Agilent Zorbax SB-C18 RP-18 column (4.6 × 50 mm, 1.8-μm particle size, 80-Å pore size) using a linear 30–60% acetonitrile (B) gradient in deionized water (A) over 6 min at 25.0 ± 0.1 °C, at a flow rate of 0.5 mL/min and MS working in selected ion recording (SIR) mode (A—0.1% aqueous formic acid (FA) and B—0.1% FA in acetonitrile). The percentage of peptide remaining intact was calculated from peak areas of samples at t0 and after 6 h of incubation in serum (the % of remaining peptide = peak area after 6 h/peak area at t0). The mass-to-charge ratios selected for SIR mode were based on values obtained from full spectrum analysis of each peptide and are presented in Table 1.

Row | Compound | MBIC, S. aureus ATCC 25923 [1] [µg/mL] | MBEC, S. aureus ATCC 25923 [2] [µg/mL] | MIC, S. aureus ATCC 25923 (S. aureus ATCC 25923) [mg/L] | MBIC, E. faecalis PCM 2673 [3] [µg/mL] | MBEC, E. faecalis PCM 2673 [4] [µg/mL] | MIC, E. faecalis PCM 2673 (E. faecalis PCM 2673) [mg/L] | MBIC, E. coli ATCC 25922 [5] [µg/mL] | MBEC, E. coli ATCC 25922 [6] [µg/mL] | MIC, E. coli ATCC 25922 (E. coli ATCC 25922) [mg/L] | MBIC, P. aeruginosa ATCC 9027 [7] [µg/mL] | MBEC, P. aeruginosa ATCC 9027 [8] [µg/mL] | MIC, P. aeruginosa ATCC 9027 (P. aeruginosa ATCC 9027) [mg/L] | MBIC, C. albicans ATCC 10231 [9] [µg/mL] | MBEC, C. albicans ATCC 10231 [10] [µg/mL] | MIC, C. albicans ATCC 10231 (C. albicans ATCC 10231) [mg/L] | Percentage of hemolysis at 1 μg/mL [11] [%] | Percentage of hemolysis at 2 μg/mL [11] [%] | Percentage of hemolysis at 4 μg/mL [11] [%] | Percentage of hemolysis at 8 μg/mL [11] [%] | Percentage of hemolysis at 16 μg/mL [11] [%] | also measured
1 | CC[C@H](C)[C@H](NC(=O)[C@H](C)NC(=O)[C@H](CC(=O)O)NC(=O)[C@H](Cc1ccccc1)NC(=O)[C@H](CC(C)C)NC(=O)CN)C(=O)N[C@@H](CCCCN)C(=O)N[C@@H](CCCCN)C(=O)N[C@H](C(=O)N[C@@H](C)C(=O)N[C@@H](CCC(=O)O)C(=O)N[C@@H](CO)C(=O)N[C@@H](Cc1ccccc1)C(N)=O)[C@@H](C)CC [Peptide I5A] (H-GLFDAIKKIAESF-NH2) | > 512 | > 512 | > 512 | 512 | > 512 | 128 (≈ 89 µM) | 512 | 512 | 256 (≈ 178 µM) | > 512 | > 512 | 512 (≈ 356 µM) | 4 | 512 | 256 (≈ 178 µM) | 0.2 | 0.3 | 0.2 | 0.0 | 0.0 | Percentage of hemolysis at 32 μg/mL [11]: 0.0%; Percentage of hemolysis at 64 μg/mL [11]: 0.1%; Percentage of hemolysis at 128 μg/mL [11]: 0.0%; Percentage of hemolysis at 256 μg/mL [11]: 1.1%; remaining at 6 h, 0.125 mg/mL (in vitro): 71%
2 | CC[C@H](C)[C@H](NC(=O)[C@H](CCCCN)NC(=O)[C@H](CCCCN)NC(=O)[C@H](C)NC(=O)[C@@H](NC(=O)[C@H](CC(=O)O)NC(=O)[C@H](Cc1ccccc1)NC(=O)[C@H](CC(C)C)NC(=O)CN)[C@@H](C)CC)C(=O)N[C@@H](C)C(=O)N[C@@H](CCC(=O)O)C(=O)N[C@@H](CO)C(=O)N[C@@H](Cc1ccccc1)C(N)=O [Peptide I6A] (H-GLFDIAKKIAESF-NH2) | > 512 | > 512 | > 512 | > 512 | > 512 | 256 (≈ 178 µM) | 512 | > 512 | 512 (≈ 356 µM) | > 512 | > 512 | > 512 | 4 | > 512 | 256 (≈ 178 µM) | 0.4 | 0.6 | 0.5 | 0.3 | 0.1 | Percentage of hemolysis at 32 μg/mL [11]: 0.0%; Percentage of hemolysis at 64 μg/mL [11]: 0.1%; Percentage of hemolysis at 128 μg/mL [11]: 0.1%; Percentage of hemolysis at 256 μg/mL [11]: 0.1%; remaining at 6 h, 0.125 mg/mL (in vitro): 29%
3 | CC[C@H](C)[C@H](NC(=O)[C@H](CC(=O)O)NC(=O)[C@H](Cc1ccccc1)NC(=O)[C@H](CC(C)C)NC(=O)CN)C(=O)N[C@H](C(=O)N[C@@H](CCCCN)C(=O)N[C@@H](CCCCN)C(=O)N[C@@H](C)C(=O)N[C@@H](C)C(=O)N[C@@H](CCC(=O)O)C(=O)N[C@@H](CO)C(=O)N[C@@H](Cc1ccccc1)C(N)=O)[C@@H](C)CC [Peptide I9A] (H-GLFDIIKKAAESF-NH2) | > 512 | > 512 | > 512 | > 512 | > 512 | 128 (≈ 89 µM) | >512 | > 512 | 512 (≈ 356 µM) | > 512 | > 512 | > 512 | 16 | > 512 | 512 (≈ 356 µM) | 0.6 | 0.6 | 0.3 | 0.1 | 0.0 | Percentage of hemolysis at 32 μg/mL [11]: 0.0%; Percentage of hemolysis at 64 μg/mL [11]: 0.0%; Percentage of hemolysis at 128 μg/mL [11]: 0.0%; Percentage of hemolysis at 256 μg/mL [11]: 0.0%; remaining at 6 h, 0.125 mg/mL (in vitro): 6%
